Values joined by “and” are separate entries in the source; they are usually repeats but may differ in a detail not shown here. Equal entries are not always repeated.
Assays:
IPOHE = assay: Post-emergence foliar-applied weed control, greenhouse (Example I); format: in vivo, Ipomoea hederacea Jacq.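 On Visual Weed Control (%) - 20 DAA IPOHE Obs: visual score 0 no injury to 100 complete kill versus untreated plants.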
Description: (§1) Evaluation of Post-emergence Foliar-Applied Herbicidal Mixtures for Weed Control in Direct Seeded Rice
(§2) Seeds or nutlets of the desired test plant species were planted in a soil matrix prepared by mixing a loam or sandy loam soil (e.g., 28.6 percent silt, 18.8 percent clay, and 52.6 percent sand, with a pH of about 5.8 and an organic matter content of about 1.8 percent) and calcareous grit in an 80 to 20 ratio. The soil matrix was contained in plastic pots with a volume of 1 quart and a surface area of 83.6 square centimeters (cm^2). When required to ensure good germination and healthy plants, a fungicide treatment and/or other chemical or physical treatment was applied. The plants were grown for 8-22 days in a greenhouse with an approximate 14 h photoperiod which was maintained at about 29° C. during the day and 26° C. during the night. Nutrients (Peters Excel® 15-5-15 5-Ca 2-Mg and iron chelate) were applied in the irrigation solution as needed and water was added on a regular basis. Supplemental lighting was provided with overhead metal halide 1000-Watt lamps as necessary. The plants were employed for testing when they reached the first through fourth true leaf stage.
(§3) Treatments consisted of the acid or esters of 4-amino-3-chloro-5-fluoro-6-(4-chloro-2-fluoro-3-methoxy-phenyl)pyridine-2-carboxylic acid (Compound A), each formulated as an SC (suspension concentrate), and various herbicidal components alone and in combination. Forms of Compound A were applied on an acid equivalent basis.
(§4) Other herbicidal components were applied on an active ingredient basis and included 4-hydroxyphenyl pyruvate dioxygenase (HPPD)-inhibiting herbicides mesotrione formulated as Callisto®, sulcotrione formulated as Mikado®, pyrazolynate formulated as Sunbird® 10% GR, and benzobicyclon formulated as Benzobicyclon 3.5%.
(§5) Treatment requirements were calculated based upon the rates being tested, the concentration of active ingredient or acid equivalent in the formulation, and a 12 mL application volume at a rate of 187 L/ha.
(§6) For treatments comprised of formulated compounds, measured amounts of compounds were placed individually in 25 mL glass vials and diluted in a volume of 1.25% (v/v) Agri-Dex® crop oil concentrated to obtain 12× stock solutions. […] Application solutions were prepared by adding an appropriate amount of each stock solution (e.g., 1 mL) and diluted to the appropriate final concentrations with the addition of 10 mL of an aqueous mixture of 1.25% (v/v) crop oil concentrate so that the final spray solutions contained 1.25+/−0.05% (v/v) crop oil concentrate.
(§7) For treatments comprised of formulated and technical compounds, weighed amounts of the technical materials were placed individually in 25 mL glass vials and dissolved in a volume of 97:3 v/v acetone/DMSO to obtain 12× stock solutions, and measured amounts of the formulated compounds were placed individually in 25 mL glass vials and diluted in a volume of 1.5% (v/v) crop oil concentrate or water to obtain 12× stock solutions. […] Application solutions were prepared by adding an appropriate amount of each stock solution (e.g., 1 mL) and diluted to the appropriate final concentrations with the addition of an appropriate amount of an aqueous mixture of 1.5% (v/v) crop oil concentrate so that the final spray solutions contained 1.25% (v/v) crop oil concentrate. As required, additional water and/or 97:3 v/v acetone/DMSO was added to individual application solutions so that the final acetone and DMSO concentrations of the application solutions being compared were 8.1% and 0.25%, respectively.
(§8) All stock solutions and applications solutions were visually inspected for compound compatibility prior to application. Spray solutions were applied to the plant material with an overhead Mandel track sprayer equipped with a 8002E nozzles calibrated to deliver 187 L/ha over an application area of 0.503 m^2 at a spray height of 18 to 20 inches (46 to 50 cm) above average plant canopy height. […]

BRAPP = assay: as above; format: in vivo
Description: as §1, §2, §3, §4, §5, §6, §7, §8

SCPJU = assay: as above; format: in vivo, Schoenoplectus juncoides (Roxb.) Palla
Description: as §1, §2, §3, §4, §5, §6, §7, §8

SETVI = assay: Pre-emergence soil-applied weed control, greenhouse (Example III); format: in vivo, Setaria viridis (L.) Beauv.
Description: Evaluation of Pre-emergence Soil-Applied Herbicidal Mixtures for Weed Control
Seeds or nutlets of the desired test plant species were planted in a soil matrix prepared by mixing a loam soil (32 percent silt, 23 percent clay, and 45 percent sand, with a pH of about 6.5 and an organic matter content of about 1.9 percent) and calcareous grit in an 80 to 20 ratio. The soil matrix was contained in plastic pots with a volume of 1 quart and a surface area of 83.6 square centimeters (cm^2).
as §3, with “benzyl ester” for “acid or esters”, “(compound A)” for “(Compound A), each”, “concentrate)” for “concentrate),”, “compound” for “Compound”
Other herbicidal components were applied on an acid equivalent or active ingredient basis and included the 4-hydroxyphenyl pyruvate dioxygenase (HPPD)-inhibiting herbicide, isoxaflutole, formulated as Balance Pro®.
as §5
as §6, with “oil concentrate (COC)” for “oil concentrated”, “(v/v) COC” for “(v/v) crop oil concentrate”, “contained 1.25%” for “contained 1.25+/−0.05%”, “(v/v) COC.” for “(v/v) crop oil concentrate.”
All stock solutions and applications solutions were visually inspected for compound compatibility prior to application. Spray solutions were applied to the soil with an overhead Mandel track sprayer equipped with a 8002E nozzles calibrated to deliver 187 L/ha over an application area of 0.503 m^2 at a spray height of 18 inches (46 cm) above average pot height. Control pots were sprayed in the same manner with the solvent blank.
The treated and control pots were placed in a greenhouse and top watered as needed. When required to ensure good germination and healthy plants, a fungicide treatment and/or other chemical or physical treatment was applied. […] After approximately 4 weeks, the condition of the test plants as compared with that of the untreated plants was determined visually and scored on a scale of 0 to 100 percent where 0 corresponds to no injury or growth inhibition and 100 corresponds to complete kill. […]

| SMILES | Visual Control (%) - 20 DAA IPOHE Obs (IPOHE; 4.38 gae/ha) | Visual Control (%) - 20 DAA IPOHE Obs (IPOHE; 8.75 gae/ha) | Visual Control (%) - 20 DAA IPOHE Obs (IPOHE; 17.5 gae/ha) | Visual Weed Control (%) - 21 DAA IPOHE Obs (IPOHE; 17.5 gae/ha) | Visual Weed Control (%) - 21 DAA IPOHE Obs (IPOHE; 35 gae/ha) | Visual Weed Control (%) - 20 DAA BRAPP Obs (BRAPP; 8.75 gae/ha) | Visual Weed Control (%) - 20 DAA BRAPP Obs (BRAPP; 17.5 gae/ha) | Visual Weed Control (%) - 22 DAA SCPJU Obs (SCPJU; 5.3 gae/ha) | Visual Weed Control (%) - 22 DAA SCPJU Obs (SCPJU; 10.6 gae/ha) | Visual Weed Control (%) - 20 DAA IPOHE Obs (IPOHE; 4.38 gae/ha) | Visual Weed Control (%) - 20 DAA IPOHE Obs (IPOHE; 8.75 gae/ha) | Visual Weed Control (%) - 20 DAA IPOHE Obs (IPOHE; 17.5 gae/ha) | Visual Weed Control (%) - 32 DAA SETVI Obs (SETVI; 16 gae/ha) | Visual Weed Control (%) - 32 DAA SETVI Obs (SETVI; 32 gae/ha) | Visual Weed Control (%) - 20 DAA BRAPP Obs (BRAPP; 4.38 gae/ha) | Visual Weed Control (%) - 20 DAA SCPJU Obs (SCPJU; 4.38 gae/ha) | Visual Weed Control (%) - 20 DAA SCPJU Obs (SCPJU; 8.75 gae/ha) |
| --- | --- | --- | --- | --- | --- | --- | --- | --- | --- | --- | --- | --- | --- | --- | --- | --- | --- |
| COc1c(Cl)ccc(-c2nc(C(=O)O)c(Cl)c(N)c2F)c1F [Compound A Acid, 4-amino-3-chloro-6-(4-chloro-2-fluoro-3-methoxyphenyl)-5-fluoropyridine-2-carboxylic acid] | 10% | 35% | 40% | 25% | 48% | 60% and 80% | 85% | 60% | 75% |  |  |  |  |  |  |  |  |
| COc1c(Cl)ccc(-c2nc(C(=O)OCc3ccccc3)c(Cl)c(N)c2F)c1F [Compound A Benzyl Ester, benzyl ester of 4-amino-3-chloro-5-fluoro-6-(4-chloro-2-fluoro-3-methoxy-phenyl)pyridine-2-carboxylic acid] |  |  |  |  |  | 70% |  |  |  | 10% | 10% | 20% | 0% | 13% | 50% | 30% | 60% |

— patent publication US8841233B2, “Herbicidal compositions comprising 4-amino-3-chloro-5-fluoro-6-(4-chloro-2-fluoro-3-methoxyphenyl) pyridine-2-carboxylic acid or a derivative thereof and 4-hydroxyphenyl-pyruvate dioxygenase (HPPD) inhibitors” (Dow Agrosciences LLC, priority 2012, dated 2014)
